Measurements: US6518295B1, “Utilization of aryl(or heteroaryl)azolylcarbinol derivatives in the preparation of a medicament for the treatment of troubles mediated by an excess of substance P” (Laboratorios del Dr. Esteve, S.A., priority 1998, dated 2003)
Where two headings read alike, the source gives them in different places.

Legend:
Assay type in all cases: in vivo
[1] = test system: intrathecal release of substance P; experiment: Effect on the spinal release of substance P in rats (intrathecal perfusion)
Protocol: Effect on the Spinal Release of Substance P in Rats:
The study was carried out in vivo, in rats anaesthetised with halothane. The trial consisted of intrathecal perfusion with an artificial cerebrospinal fluid, with a view to collecting the peptides released from the superficial layers of the spinal cord while the product under study is administered locally or systematically. The method used was that described by Collin, E. and co-workers (Naunyn-Schmiedeberg's Arch. Pharmacol., 1994, 349, 387-393).
The activity of the (±)-5-{α-[2-(dimethylamino)ethoxy] benzyl}-1-methyl-1H-pyrazol citrate (example 191) was studied, administered intrathecally in the perfusion liquid, at a concentration of 1 μM.
It is of note that the effect of the systematic administration of product on the intrathecal release of substance P lasted 2 hours, the average inhibition being 50% of the effect during this period.

[2] = test system: ptosis induced by reserpine; experiment: Inhibition of ptosis induced by reserpine in mice
Protocol: (§1) In one the inhibition of ptosis induced by reserpine was studied, and in the other the effect on mobility in adverse situation was investigated.
2.1 Inhibition of Ptosis Induced by Reserpine in Mice:
The method used was that described by S.Garattini and co-workers (Med. Exp., 1960, 3, 315-320). The trial consists of observing the possible inhibition of ptosis induced by reserpine ([…], ip: intraperitoneal) in mice, after the products under study had been administered orally.
The activity of the (±)-5-{α-[2-(dimethylamino)ethoxy] benzyl}-1-methyl-1H-pyrazol citrate (example 191) administered orally at different doses has been determined.

[3] = test system: immobility time in adverse situation; experiment: Effect on mobility in adverse situation (mice suspended by their tails, ITEMATIC-TST)
From the text: as §1
2.2 Effect on Mobility in Adverse Situation:
The method used was described by R. D. Porsolt and co-workers (Arch. Int. Pharmacodyn., 1987, 288, 11-30). The trial consists of suspending the mice by their tales for six minutes in an ITEMATIC-TST apparatus, which measures the mobility and the strength of the animals' movements. The animals exposed to this adverse situation, after a start with vigorous activity, become desperate and end up staying still.

CN(C)CCOC(c1ccccc1)c1ccnn1C.O=C(O)CC(O)(CC(=O)O)C(=O)O (racemic) [Example 191, (±)-5-{α-[2-(dimethylamino)ethoxy]benzyl}-1-methyl-1H-pyrazol citrate]
inhibition at 1 µM ([1]; Rattus norvegicus, central, 1 μM, intrathecal, in the perfusion liquid, rats anaesthetised with halothane, read-out: % Inhibition, with respect to control, of intrathecal release of substance P): 58% | inhibition at 46 mg/kg ([1]; Rattus norvegicus, central, systematic administration (46 mg/kg), average during the 2 hours, read-out: average inhibition of intrathecal release of substance P): 50% | inhibition at 46 mg/kg ([1]; Rattus norvegicus, 46 mg/kg, ip, rats anaesthetised with halothane, read-out: % Inhibition, with respect to control, of intrathecal release of substance P): 50% | effect on release of substance P ([1]; intrathecally in the perfusion liquid, 1 μM): inhibited the release of substance P | duration of the effect on the intrathecal release of substance P ([1]; systematic administration (46 mg/kg)): 2 h | effect on release of substance P ([1]; systematic administration of 46 mg/kg): reduced the release of substance P | inhibition at 12 mg/kg ([2]; Mus musculus, 12 mg/kg, oral (dose as base)): 8% | inhibition at 23 mg/kg ([2]; Mus musculus, 23 mg/kg, oral (dose as base)): 30% | inhibition at 80 mg/kg ([2]; Mus musculus, 80 mg/kg, oral (dose as base)): 75% | inhibition at 92 mg/kg ([2]; Mus musculus, 92 mg/kg, oral (dose as base)): 84% | anti-depressive activity, inhibition of the effects of reserpine ([2]; oral, different doses): clear anti-depressive activity inhibiting the effects of reserpine with a good dose-response | SD-50 ([2]; oral, inhibition of ptosis induced by reserpine): 38.5 mg/kg, oral | inhibition at 12 mg/kg ([3]; Mus musculus, mice, dose 12 mg/kg, oral): 20% | inhibition at 23 mg/kg ([3]; Mus musculus, mice, dose 23 mg/kg, oral): 30% | inhibition at 46 mg/kg ([3]; Mus musculus, mice, dose 46 mg/kg, oral): 41% | inhibition at 92 mg/kg ([3]; Mus musculus, mice, dose 92 mg/kg, oral): 69% | effect on the immobility period ([3]; mice suspended by their tails for six minutes): reducing the immobility period significantly and in a dose-dependent fashion | DE-50 (inhibition of immobility time in adverse situation) ([3]; mice, oral): 50.5 mg/kg, oral
